Test results reported in patent publication US20260347373A1, “HETEROCYCLIC COMPOUNDS, COMPOSITIONS THEREOF, AND METHODS OF TREATMENT THEREWITH” (BeOne Medicines I GmbH, priority 2023, published 2026).

Columns and labels:
KRAS G12D = KRAS G12D (Homo sapiens, UniProt P01116, G12D); test: KRAS G12D Probe Displacement Assay (TR-FRET, GDP-loaded); type: binding; conditions: KRAS G12D, read-out: KRAS^G12D Probe Displacement Assay IC50
Excerpt: (§1) The synthetic routes of probe 1 and 2, which have been disclosed in PCT/CN2022/070676, are hereby incorporated herein.

WT KRAS = WT KRAS (Homo sapiens, UniProt P01116); test: KRAS WT Probe Displacement Assay (TR-FRET, GDP-loaded); type: binding; conditions: KRAS WT, read-out: KRAS^WT Probe Displacement Assay IC50
Excerpt: as §1

Sequence of WT KRAS (P01116 1-188 isoform P01116-2): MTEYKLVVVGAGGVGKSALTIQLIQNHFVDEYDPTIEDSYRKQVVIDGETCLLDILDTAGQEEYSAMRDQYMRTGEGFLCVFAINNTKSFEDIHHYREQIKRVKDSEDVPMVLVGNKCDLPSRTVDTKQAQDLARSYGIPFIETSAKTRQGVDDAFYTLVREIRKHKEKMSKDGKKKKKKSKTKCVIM
Sequence of KRAS G12D (P01116 1-188 isoform P01116-2 G12D): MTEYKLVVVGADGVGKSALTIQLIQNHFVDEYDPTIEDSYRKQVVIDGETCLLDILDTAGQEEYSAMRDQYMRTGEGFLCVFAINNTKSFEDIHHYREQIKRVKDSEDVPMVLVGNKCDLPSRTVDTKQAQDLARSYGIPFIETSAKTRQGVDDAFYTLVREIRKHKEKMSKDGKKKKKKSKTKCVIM

With `CN(C)C[C@@]1(COc2nc3c4c(nc(-c5cc(N)cc(Cl)c5C(F)(F)F)c(F)c4n2)OCC[C@@H]2[C@@H]4CC[C@H](CN32)N4)CC1(F)F` [Example 45, 3-chloro-5-((6aR,7S,10R)-13-(((R)-1-((dimethylamino)methyl)-2,2-difluorocyclopropyl)methoxy)-1-fluoro-5,6,6a,7,8,9,10,11-octahydro-4-oxa-3,11a,12,14,15-pentaaza-7,10-methanocyclohepta[4,5]cycloocta[1,2,3-de]naphthalen-2-yl)-4-(trifluoromethyl)aniline] the IC50 (KRAS G12D) was less than 0.3 nM and the IC50 (WT KRAS) was 0.3 to 3 nM.
`[2H]C([2H])([2H])c1cc(N)cc(-c2nc3c4c(nc(OC[C@@]5(CN(C)C)CC5(F)F)nc4c2F)N2C[C@H]4CC[C@H](N4)[C@H]2CCO3)c1C(F)(F)F` [Example 46, 3-((6aR,7S,10R)-13-(((S)-1-((dimethylamino)methyl)-2,2-difluorocyclopropyl)methoxy)-1-fluoro-5,6,6a,7,8,9,10,11-octahydro-4-oxa-3,11a,12,14,15-pentaaza-7,10-methanocyclohepta[4,5]cycloocta [1,2,3-de]naphthalen-2-yl)-5-(methyl-d3)-4-(trifluoromethyl)aniline] showed an IC50 (KRAS G12D) of less than 0.3 nM and an IC50 (WT KRAS) of 3 to 1000 nM.
In the case of `[2H]C([2H])([2H])c1cc(N)cc(-c2nc3c4c(nc(OC[C@]5(CN(C)C)CC5(F)F)nc4c2F)N2C[C@H]4CC[C@H](N4)[C@H]2CCO3)c1C(F)(F)F` [Example 47, 3-((6aR,7S,10R)-13-(((R)-1-((dimethylamino)methyl)-2,2-difluorocyclopropyl)methoxy)-1-fluoro-5,6,6a,7,8,9,10,11-octahydro-4-oxa-3,11a,12,14,15-pentaaza-7,10-methanocyclohepta[4,5]cycloocta [1,2,3-de]naphthalen-2-yl)-5-(methyl-d3)-4-(trifluoromethyl)aniline], the IC50 (KRAS G12D) is reported as less than 0.3 nM and the IC50 (WT KRAS) is reported as 3 to 1000 nM.
With `Cc1nc(N)cc(-c2nc3c4c(nc(OC[C@]5(CN(C)C)CC5(F)F)nc4c2F)N2C[C@H]4CC[C@H](N4)[C@H]2CCO3)c1C(F)(F)F` [Example 48, 4-((6aR,7S,10R)-13-(((R)-1-((dimethylamino)methyl)-2,2-difluorocyclopropyl)methoxy)-1-fluoro-5,6,6a,7,8,9,10,11-octahydro-4-oxa-3,11a,12,14,15-pentaaza-7,10-methanocyclohepta[4,5]cycloocta [1,2,3-de]naphthalen-2-yl)-6-methyl-5-(trifluoromethyl)pyridin-2-amine] the IC50 (KRAS G12D) was less than 0.3 nM and the IC50 (WT KRAS) was 3 to 1000 nM.
`Cc1cc(N)cc(-c2nc3c4c(nc(OCC5(CN(C)C)CC5)nc4c2F)N2C[C@H]4CC[C@H](N4)[C@H]2CCO3)c1C(F)(F)F` [Example 56, 3-((6aR,7S,10R)-13-((1-((dimethylamino)methyl)cyclopropyl)methoxy)-1-fluoro-5,6,6a,7,8,9,10,11-octahydro-4-oxa-3,11a,12,14,15-pentaaza-7,10-methanocyclohepta[4,5]cycloocta [1,2,3-de]naphthalen-2-yl)-5-methyl-4-(trifluoromethyl)aniline] was tested, and the IC50 (KRAS G12D) was less than 0.3 nM and the IC50 (WT KRAS) was 3 to 1000 nM.
Compound `Cc1cc(N)cc(-c2nc3c4c(nc(OCC5(CN6C[C@@H](C)O[C@@H](C)C6)CC5)nc4c2F)N2C[C@H]4CC[C@H](N4)[C@H]2CCO3)c1C(F)(F)F` [Example 64, 3-((6aR,7S,10R)-13-((1-(((2S,6R)-2,6-dimethylmorpholino)methyl)cyclopropyl)methoxy)-1-fluoro-5,6,6a,7,8,9,10,11-octahydro-4-oxa-3,11a,12,14,15-pentaaza-7,10-methanocyclohepta[4,5]cycloocta [1,2,3-de]naphthalen-2-yl)-5-methyl-4-(trifluoromethyl)aniline] has an IC50 (KRAS G12D) of less than 0.3 nM and an IC50 (WT KRAS) of 0.3 to 3 nM.
Work on `Cc1cc(N)cc(-c2nc3c4c(nc(OCC5(CN6C[C@H]7C[C@@H]6CO7)CC5)nc4c2F)N2C[C@H]4CC[C@H](N4)[C@H]2CCO3)c1C(F)(F)F` [Example 65, 3-((6aR,7S,10R)-13-((1-(((1R,4R)-2-oxa-5-azabicyclo[2.2.1]heptan-5-yl)methyl)cyclopropyl)methoxy)-1-fluoro-5,6,6a,7,8,9,10,11-octahydro-4-oxa-3,11a,12,14,15-pentaaza-7,10-methanocyclohepta[4,5]cycloocta [1,2,3-de]naphthalen-2-yl)-5-methyl-4-(trifluoromethyl)aniline] yielded an IC50 (KRAS G12D) of less than 0.3 nM and an IC50 (WT KRAS) of 3 to 1000 nM.
Compound `Cc1cc(N)cc(-c2nc3c4c(nc(OCC5(CN6CCC(F)CC6)CC5)nc4c2F)N2C[C@H]4CC[C@H](N4)[C@H]2CCO3)c1C(F)(F)F` [Example 66, 3-((6aR,7S,10R)-1-fluoro-13-((1-((4-fluoropiperidin-1-yl)methyl)cyclopropyl)methoxy)-5,6,6a,7,8,9,10,11-octahydro-4-oxa-3,11a,12,14,15-pentaaza-7,10-methanocyclohepta[4,5]cycloocta [1,2,3-de]naphthalen-2-yl)-5-methyl-4-(trifluoromethyl)aniline] has an IC50 (KRAS G12D) of less than 0.3 nM and an IC50 (WT KRAS) of 3 to 1000 nM.
For `Cc1cc(N)cc(-c2nc3c4c(nc(OCC5(CN6CCOCC6)CC5)nc4c2F)N2C[C@H]4CC[C@H](N4)[C@H]2CCO3)c1C(F)(F)F` [Example 67, 3-((6aR,7S,10R)-1-fluoro-13-((1-(morpholinomethyl)cyclopropyl)methoxy)-5,6,6a,7,8,9,10,11-octahydro-4-oxa-3,11a,12,14,15-pentaaza-7,10-methanocyclohepta[4,5]cycloocta [1,2,3-de]naphthalen-2-yl)-5-methyl-4-(trifluoromethyl)aniline], the IC50 (KRAS G12D) was less than 0.3 nM and the IC50 (WT KRAS) was 3 to 1000 nM.
`Cc1cc(N)cc(-c2nc3c4c(nc(OCC5(CN6C[C@@H]7C[C@H]6CO7)CC5)nc4c2F)N2C[C@H]4CC[C@H](N4)[C@H]2CCO3)c1C(F)(F)F` [Example 68, 3-((6aR,7S,10R)-13-((1-(((1S,4S)-2-oxa-5-azabicyclo[2.2.1]heptan-5-yl)methyl)cyclopropyl)methoxy)-1-fluoro-5,6,6a,7,8,9,10,11-octahydro-4-oxa-3,11a,12,14,15-pentaaza-7,10-methanocyclohepta[4,5]cycloocta [1,2,3-de]naphthalen-2-yl)-5-methyl-4-(trifluoromethyl)aniline] gave an IC50 (KRAS G12D) of less than 0.3 nM and an IC50 (WT KRAS) of 3 to 1000 nM.
Compound `Cc1cc(N)cc(-c2nc3c4c(nc(OCC5(CN6CC(F)C6)CC5)nc4c2F)N2C[C@H]4CC[C@H](N4)[C@H]2CCO3)c1C(F)(F)F` [Example 69, 3-((6aR,7S,10R)-1-fluoro-13-((1-((3-fluoroazetidin-1-yl)methyl)cyclopropyl)methoxy)-5,6,6a,7,8,9,10,11-octahydro-4-oxa-3,11a,12,14,15-pentaaza-7,10-methanocyclohepta[4,5]cycloocta [1,2,3-de]naphthalen-2-yl)-5-methyl-4-(trifluoromethyl)aniline] has an IC50 (KRAS G12D) of less than 0.3 nM and an IC50 (WT KRAS) of 3 to 1000 nM.
`Cc1cc(N)cc(-c2nc3c4c(nc(OCC5(CN6CCC(F)(F)CC6)CC5)nc4c2F)N2C[C@H]4CC[C@H](N4)[C@H]2CCO3)c1C(F)(F)F` [Example 70, 3-((6aR,7S,10R)-13-((1-((4,4-difluoropiperidin-1-yl)methyl)cyclopropyl)methoxy)-1-fluoro-5,6,6a,7,8,9,10,11-octahydro-4-oxa-3,11a,12,14,15-pentaaza-7,10-methanocyclohepta[4,5]cycloocta [1,2,3-de]naphthalen-2-yl)-5-methyl-4-(trifluoromethyl)aniline] was tested, and the IC50 (KRAS G12D) was less than 0.3 nM and the IC50 (WT KRAS) was 0.3 to 3 nM.
For `Cc1cc(N)cc(-c2nc3c4c(nc(OCC5(CN6CC7CC7C6)CC5)nc4c2F)N2C[C@H]4CC[C@H](N4)[C@H]2CCO3)c1C(F)(F)F` (stereo partly drawn) [Example 71, 3-((6aR,7S,10R)-13-((1-((3-azabicyclo[3.1.0]hexan-3-yl)methyl)cyclopropyl)methoxy)-1-fluoro-5,6,6a,7,8,9,10,11-octahydro-4-oxa-3,11a,12,14,15-pentaaza-7,10-methanocyclohepta[4,5]cycloocta [1,2,3-de]naphthalen-2-yl)-5-methyl-4-(trifluoromethyl)aniline], the IC50 (KRAS G12D) was less than 0.3 nM and the IC50 (WT KRAS) was 3 to 1000 nM.
`Nc1cc(Cl)c(C(F)(F)F)c(-c2nc3c4c(nc(OCC56C[C@@H](F)CN5C[C@H](F)C6)nc4c2F)N2C[C@H]4CC[C@H](N4)[C@H]2CCO3)c1` [Example 72, 3-chloro-5-((6aR,7S,10R)-13-(((2R,6R)-2,6-difluorotetrahydro-1H-pyrrolizin-7a(5H)-yl)methoxy)-1-fluoro-5,6,6a,7,8,9,10,11-octahydro-4-oxa-3,11a,12,14,15-pentaaza-7,10-methanocyclohepta[4,5]cycloocta [1,2,3-de]naphthalen-2-yl)-4-(trifluoromethyl)aniline] showed an IC50 (KRAS G12D) of less than 0.3 nM and an IC50 (WT KRAS) of 3 to 1000 nM.
In the case of `[2H]C([2H])([2H])c1cc(N)cc(-c2nc3c4c(nc(OCC56C[C@@H](F)CN5C[C@H](F)C6)nc4c2F)N2C[C@H]4CC[C@H](N4)[C@H]2CCO3)c1C(F)(F)F` [Example 73, 3-((6aR,7S,10R)-13-(((2R,6R)-2,6-difluorotetrahydro-1H-pyrrolizin-7a(5H)-yl)methoxy)-1-fluoro-5,6,6a,7,8,9,10,11-octahydro-4-oxa-3,11a,12,14,15-pentaaza-7,10-methanocyclohepta[4,5]cycloocta [1,2,3-de]naphthalen-2-yl)-5-(methyl-d3)-4-(trifluoromethyl)aniline], the IC50 (KRAS G12D) is reported as less than 0.3 nM and the IC50 (WT KRAS) is reported as 3 to 1000 nM.
Work on `Cc1cc(N)cc(-c2nc3c4c(nc(O[C@@H](C)[C@@H]5C[C@@H](F)CN5C)nc4c2F)N2C[C@H]4CC[C@H](N4)[C@H]2CCO3)c1C(F)(F)F` [Example 74, 3-((6aR,7S,10R)-1-fluoro-13-((S)-1-((2S,4R)-4-fluoro-1-methylpyrrolidin-2-yl)ethoxy)-5,6,6a,7,8,9,10,11-octahydro-4-oxa-3,11a,12,14,15-pentaaza-7,10methanocyclohepta[4,5]cycloocta [1,2,3-de]naphthalen-2-yl)-5-methyl-4-(trifluoromethyl)aniline] yielded an IC50 (KRAS G12D) of less than 0.3 nM and an IC50 (WT KRAS) of 3 to 1000 nM.
